Assay results reported in patent EP0423133B1, “ENZYMATIC RESOLUTION SYSTEMS AND COMPOUNDS USEFUL IN THE SYSTEMS AND THEIR REPARATIONS” (priority 1988, dated 1989).
≈ marks a conversion by molar mass, not a printed value. Structures can show the parent of a compound that is named as a salt. Where two headings read alike, the source gives them in different places.

Tests used:
Protease XXIII = assay: Homogeneous aqueous enzymatic resolution (ester hydrolysis) with enzyme A; format: biochemical, Aspergillus oryzae; settings: for enantiomeric excess: pH 7.5, 100 mg Protease XXIII (A)
Description: The enzymes used in Examples 6.2.1.1-6.2.1.17, 6.2.1.20-6.2.1.21, 6.2.1.23-6.2.1.28, 6.2.2.7, and 6.2.3.1-6.2.3.5 that follow were all proteases commercially available from Sigma Chemical Co., St. Louis, MO. […] For examples 6.2.2.5-6.2.2.6, Candida lipase obtained from Genzyme Corporation was used.
No further purification was performed.
The aqueous layer was retained.

[1] = target: T1, Protease VIII: "Subtilopeptidase A" (Bacillus licheniformis, UniProt P00780); assay: Homogeneous aqueous enzymatic resolution (ester hydrolysis) with enzyme B; format: biochemical; settings: for % e.e.: acid product
T1 sequence (P00780 106-379): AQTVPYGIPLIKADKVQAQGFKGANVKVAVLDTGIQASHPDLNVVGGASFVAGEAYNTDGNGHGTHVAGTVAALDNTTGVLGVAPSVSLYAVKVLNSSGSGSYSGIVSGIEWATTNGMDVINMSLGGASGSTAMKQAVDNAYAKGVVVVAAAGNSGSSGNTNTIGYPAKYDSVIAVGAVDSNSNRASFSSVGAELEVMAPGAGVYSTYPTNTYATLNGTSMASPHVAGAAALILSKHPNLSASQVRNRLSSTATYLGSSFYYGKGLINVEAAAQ

[2] = target: T2, Protease XXVII: "Nagarse" (Bacillus amyloliquefaciens, UniProt P00782); assay: Homogeneous aqueous enzymatic resolution (ester hydrolysis) with enzyme D; format: biochemical; settings: 0.010 mol ester in 100 ml 0.2 M sodium phosphate buffer pH 7.8, 150 mg enzyme D
T2 sequence (P00782 108-382): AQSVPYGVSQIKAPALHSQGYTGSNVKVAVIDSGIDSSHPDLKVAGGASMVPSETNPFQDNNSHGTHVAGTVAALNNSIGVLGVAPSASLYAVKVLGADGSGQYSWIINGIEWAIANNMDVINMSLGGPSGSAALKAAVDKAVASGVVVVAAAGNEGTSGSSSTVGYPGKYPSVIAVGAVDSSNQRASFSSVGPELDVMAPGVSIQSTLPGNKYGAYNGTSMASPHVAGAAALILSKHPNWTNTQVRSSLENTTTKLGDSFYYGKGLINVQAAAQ
Excerpt: (§1) The enzymes used in Examples 6.2.1.1-6.2.1.17, 6.2.1.20-6.2.1.21, 6.2.1.23-6.2.1.28, 6.2.2.7, and 6.2.3.1-6.2.3.5 that follow were all proteases commercially available from Sigma Chemical Co., St. Louis, MO. These proteases are listed in each example using the Sigma numbering system, which is summarized below: • Protease VIII: "Subtilopeptidase A", product P-5380 (also known as subtilisin Carlsberg) • Protease XIV: from Streptomyces griseus, product P-5147 • Protease XVI: from Bacillus subtilis, product P-8775 • Protease XXIII: from Aspergillus oryzae, product P-4032 • Protease XXVII: "Nagarse", product P-4789 • Protease XXIV: bacterial protease, product P-8038 An additional protease enzyme, which was designated Prozyme 6, was obtained from the Amano Enzyme Corporation and used in Examples 6.2.1.18-6.2.19, 6.2.1.22, 6.2.1.29-6.2.1.30 and 6.2.2.1-6.2.2.4 described below. A pig liver esterase was used in Example 6.21.11; this enzyme, obtained from Sigma Chemical Company, was designated as their product E-3128. For examples 6.2.2.5-6.2.2.6, Candida lipase obtained from Genzyme Corporation was used. Finally, Candida lipase, product L-1754, obtained from Sigma Chemical Co. was used in Example 6.2.2.7.

[3] = Solubility by absorbance of saturated solutions at 262 nm; format: physicochemical
Protease XVI = assay: Homogeneous aqueous enzymatic resolution (ester hydrolysis) with enzyme C; format: biochemical, Bacillus subtilis; settings: 10.0 mmol ester in 100 ml 0.2 M phosphate buffer pH 7.0, 100 mg enzyme C, 20-22 °C, 20 hours; for % e.e.: acid product, R
Excerpt: as §1

Prozyme 6 = assay: Homogeneous aqueous enzymatic resolution (ester hydrolysis) with enzyme F; format: biochemical, Aspergillus oryzae; settings: for % CONVERSION / % e.e.: 10 mmol ester in 100 ml 0.2 M buffer pH 7.0, 100 mg Prozyme 6 (F), 25 °C, 18 hours; for % e.e.: acid product, R
[4] = system: Candida lipase (Genzyme Corporation); assay: Asymmetric hydrolysis in a multiphase membrane bioreactor with enzyme G; format: biochemical, Candida cylindracea; settings: neat liquid ester, pH 7.7
Excerpt: The module was then drained.
This material was recrystallized from hexane.

[5] = system: Candida lipase (Sigma L 1754); assay: Asymmetric hydrolysis in a multiphase membrane bioreactor with enzyme H; settings: for rate of ester hydrolysis: pH 7.0
Description: The enzyme solution was recirculated from the shell side to the lumen side and back to the solution reservoir in an ultra-filtration mode. […] The procedure was completed in one hour.
After loading the enzyme to the reactor, recirculation of 210 gm. […] The recirculation rate was 400 ml/min and the average pressure on the shell compartment was kept at 45,5 KPa (6.5 psi) by adjusting a throttling valve at the shell side exit. On the lumen side 1 liter of 0.05 M K2 PO4 was recirculated at a rate of 400 ml/min. The pH of the aqueous reservoir was kept at 7.0 by addition of 1 M NaOH. The reactor was run continuously for 6.8 days.
The reaction progress and rate were monitored by following the caustic consumption.

[6] = 10.0 mmol ester in 100 ml 0.2 M phosphate buffer pH 7.0, 100 mg enzyme A, 20-22 °C, 20 hours
[7] = acid product, R, 10.0 mmol ester in 100 ml 0.2 M phosphate buffer pH 7.0, 100 mg enzyme A, 20-22 °C, 20 hours
[8] = aqueous buffer, saturated solutions, pH 7 (50 mM phosphate buffer), room temperature, read-out: Solubility
[9] = water, as stated in the text of the examples, read-out: water solubility

CC(C)Cc1ccc(C(C)C(=O)OCCS(=O)(=O)O)cc1 (racemic) [Compound 2, Sodium Salt of 2-Sulfoethyl Ester of 2-(4-Isobutylphenyl) propanoic Acid]
% CONVERSION (Protease XXIII; [6]): 22.3%
% e.e. (Protease XXIII; [7]): 93.3%

CC(C)Cc1ccc(C(C)C(=O)OCCCS(=O)(=O)O)cc1 (racemic) [Compound 3, Potassium Salt of 3-Sulfopropyl Ester of 2-(4-Isobutylphenyl) propanoic Acid]
% CONVERSION (Protease XXIII; [6]): 50.0%
% CONVERSION (Protease XXIII; 0.010 mol ester in 100 ml 0.2 M sodium phosphate buffer pH 7.8, 150 mg enzyme A): 47.1%
conversion of the racemic ester to acid (Protease XXIII; about 1 M ester, 40 ml, 0.1 M potassium phosphate pH 7.0, 1.00 gm protease (A), 23.9 hours at room temperature, by hydroxide titration): 29%
% e.e. (Protease XXIII; [7]): 84.2%
% e.e. (Protease XXIII; acid product, R, 0.010 mol ester in 100 ml 0.2 M sodium phosphate buffer pH 7.8, 150 mg enzyme A): 97.7%
% CONVERSION ([1]; 0.010 mol ester in 100 ml 0.2 M sodium phosphate buffer pH 7.8, 150 mg enzyme B): 36.4%
% e.e. ([1]; R, 0.010 mol ester in 100 ml 0.2 M sodium phosphate buffer pH 7.8, 150 mg enzyme B): 98.6%
% CONVERSION [2]: 32.0%
% e.e. ([2]; acid product, R): 91.0%

CC(C)Cc1ccc(C(C)C(=O)OCCCCS(=O)(=O)O)cc1 (racemic) [Compound 4, Potassium Salt of 4-Sulfobutyl Ester of 2-(4-Isobutylphenyl) propanoic Acid]
solubility [3, 8]: 1130 mM
% CONVERSION (Protease XXIII; [6]): 43.2%
% e.e. (Protease XXIII; [7]): 97.4%
% CONVERSION ([1]; 10.0 mmol ester in 100 ml 0.2 M phosphate buffer pH 7.0, 100 mg enzyme B, 20-22 °C, 20 hours): 20.0%
% e.e. ([1]; R, 10.0 mmol ester in 100 ml 0.2 M phosphate buffer pH 7.0, 100 mg enzyme B, 20-22 °C, 20 hours): 92.1%
% CONVERSION (Protease XVI): 22.0%
% e.e. (Protease XVI): 61.7%

CC(C)Cc1ccc(C(C)C(=O)OCCOP(=O)(O)O)cc1 (racemic) [Compound 5, Disodium Salt of the Phosphoric Acid Ester of the 2-Hydroxyethyl Ester of 2-(4-Isobutylphenyl) propanoic Acid]
% CONVERSION (Protease XVI): 5.3%
% e.e. (Protease XVI): 75.6%

CC(C)Cc1ccc(C(C)C(=O)OCCCOS(=O)(=O)O)cc1 (racemic) [Compound 6, Potassium Salt of the Sulfuric Acid Ester of 3-Hydroxypropyl Ester of 2-(4-Isobutylphenyl) propanoic Acid]
% CONVERSION (Protease XXIII; [6]): 24.3%
% e.e. (Protease XXIII; [7]): 96.5%

COc1ccc2cc(C(C)C(=O)OCS(=O)(=O)O)ccc2c1 (racemic) [Compound 9, Sodium Salt of Sulfomethyl Ester of 2-(6-Methoxy-2-naphthyl) propanoic Acid]
conversion (enzymatic hydrolysis) (Protease XXIII; 2.0 gm ester in 400 ml 50 mM sodium phosphate buffer pH 7.5, 100 mg Protease XXIII (A), 25 degrees, 16 hours): 18%
enantiomeric excess (Protease XXIII; R isomer of naproxen, acid product, 16 hours): 61.2%
enantiomeric excess (Protease XXIII; S isomer of Naproxen from chemical hydrolysis (pH 12) of the unconverted ester, 16 hours): 45.5%

CC(C)Cc1ccc(C(C)C(=O)OCC[N+](C)(C)C)cc1 (racemic) [Compound 10, Iodide Salt of 2-(N,N,N-Trimethylammonium)ethyl Ester of 2-(4-Isobutylphenyl) propanoic Acid]
solubility [3, 8]: 2180 mM
% CONVERSION (Protease XXIII; [6]): 30.1%
% e.e. (Protease XXIII; [7]): >99%

COc1ccc2cc(C(C)C(=O)OCC[N+](C)(C)C)ccc2c1 (racemic) [Compound 11, Methyl Sulfate Salt of 2-(N,N,N-Trimethylammonium) ethyl Ester of 2-(6-Methoxy-2-naphthyl)propanoic Acid]
% CONVERSION (Prozyme 6): 24.3%
% e.e. (Prozyme 6): 34.0%

COc1ccc2cc(C(C)C(=O)OCCC[N+](C)(C)C)ccc2c1 (racemic) [Compound 12, Methyl Sulfate Salt of 3-(N,N,N-Trimethylammonium) propyl Ester of 2-(6-Methoxy-2-naphthyl)propanoic Acid]
solubility [3, 8]: 1610 mM
% CONVERSION (Prozyme 6): 34.0%
% e.e. (Prozyme 6): 21.6%

CC(Cl)C(=O)OCCCS(=O)(=O)O (racemic) [Compound 13, Potassium Salt of 3-Sulfopropyl Ester of 2-Chloropropanoic Acid]
conversion as measured by titrimetry ([1]; 8.05 gm ester in 300 ml 0.1 M potassium phosphate buffer pH 7.0, 20 mg subtilisin protease (B), point at which the reaction was stopped): 25%

CC(CSC(=O)c1ccccc1)C(=O)OCS(=O)(=O)O (racemic) [Compound 16, Potassium Salt of the Sulfomethyl Ester of (±)-S-3-Benzoylthio-2-methylpropanoic Acid]
% CONVERSION (Protease XXIII; 10.0 mmol ester in 100 ml 0.2 M buffer pH 7.0, 100 mg enzyme A, 25 °C, 18 hours): 53%
% e.e. (Protease XXIII; acid product, S, 10.0 mmol ester in 100 ml 0.2 M buffer pH 7.0, 100 mg enzyme A, 25 °C, 18 hours): 3%
% CONVERSION ([1]; 10.0 mmol ester in 100 ml 0.2 M buffer pH 7.0, 100 mg enzyme B, 25 °C, 18 hours): 26%
% e.e. ([1]; S, 10.0 mmol ester in 100 ml 0.2 M buffer pH 7.0, 100 mg enzyme B, 25 °C, 18 hours): 10%

CC(Oc1ccc(Cl)cc1)C(=O)OCS(=O)(=O)O (racemic) [Compound 17, Sodium Salt of the Sulfomethyl Ester of 2-(4-Chlorophenoxy) propanoic Acid]
completion of reaction (Prozyme 6; 10 mmol ester in 100 ml 0.2 M sodium phosphate buffer pH 7.0, 35 mg Enzyme F, 30 °C, 1 hour): 22.5%

CC(C)Cc1ccc(C(C)C(=O)OCC(F)(F)F)cc1 (racemic) [Compound 19, 2,2,2-Trifluoroethyl Ester of 2-(4-Isobutylphenyl)propanoic Acid]
solubility [3, 8]: 0.4 mM (≈ 115 µg/mL)
solubility [3, 9]: ~0.4 mM (≈ 115 µg/mL)
average hydrolytic rate ([4]; first 60 minutes, 3.0 grams Candida lipase in membrane): 160 amol/min
average hydrolysis rate ([4]; over the next 76 hours, by titrimetry): 21 µmol/min
conversion to acid ([4]; over the next 76 hours): about 9.8%

CCCCCCCCOC(=O)C(C)Cl (racemic) [Compound 20, Octyl Ester of 2-Chloropropanoic Acid]
solubility [3, 8]: 1.2 mM (≈ 265 µg/mL)
solubility [3, 9]: ~1.2 mM (≈ 265 µg/mL)
rate of ester hydrolysis ([5]; at the beginning of the experiment, 210 gm neat ester, 30 grams Candida lipase in membrane): 186 µmol/min
rate of ester hydrolysis ([5]; at the end of the experiment (6.8 days)): 25 µmol/min
initial ester hydrolyzed ([5]; when the experiment was terminated (6.8 days)): 41%

CC(C)Cc1ccc(C(C)C(=O)OCCN(C)C)cc1 (stereo not drawn) [2-(N,N-dimethylamino)ethyl ester of ibuprofen]
solubility [3, 8]: 10 mM (≈ 2770 µg/mL)

COCCOC(=O)C(C)c1ccc(CC(C)C)cc1 (stereo not drawn) [Methoxyethyl ester of ibuprofen]
solubility [3, 8]: 0.18 mM (≈ 47.6 µg/mL)
